Experimental data published in ChEMBL document CHEMBL5331067, “Disubstituted pyrimidine-5-carboxamide derivatives as novel HIV-1 NNRTIs: Crystallographic overlay-based molecular design, synthesis, and biological evaluation” (Eur J Med Chem, 2023).

Tests used:
[1] = (§1) Fold resistance, ratio of EC50 for antiviral activity against NNRTI-resistant HIV-1 harboring L100I mutant infected in human MT4 cells assessed as virus-induced cytopathicity to EC50 for antiviral activity against HIV-1 IIIB infected in human MT4 cells assessed as reduction in virus induced cytopathic effect; assay type: functional
[2] = Selectivity index, ratio of CC50 for cytotoxicity against human MT4 cells assessed as reduction in cell viability to EC50 for antiviral activity against NNRTI-resistant HIV-1 harboring E138K mutant infected in human MT4 cells; assay type: toxicity, cell-based; conditions: read-out: Ratio CC50/EC50
[3] = target: Human immunodeficiency virus type 1 reverse transcriptase (Human immunodeficiency virus 1, UniProt Q72547); assay: Inhibition of wild type HIV-1 reverse transcriptase assessed as reduction of biotin-dUTP incorporation into […] using ABTS as substrate incubated for 1 hrs by ELISA analysis
[4] = Selectivity index, ratio of CC50 for cytotoxicity against human MT4 cells assessed as reduction in cell viability to EC50 for antiviral activity against NNRTI-resistant HIV-1 harboring L100I mutant infected in human MT4 cells; assay type: toxicity, cell-based; conditions: read-out: Ratio CC50/EC50
[5] = Selectivity index, ratio of CC50 for cytotoxicity against human MT4 cells assessed as reduction in cell viability to EC50 for antiviral activity against HIV-1 RES056 infected in human MT4 cells assessed as reduction in virus induced cytopathic effect; assay type: toxicity, cell-based; conditions: read-out: Ratio CC50/EC50
[6] = as §1, with “F227L/V106A double” for “L100I”; assay type: functional
[7] = Cytotoxicity against human MT4 cells assessed as cell growth inhibition incubated for 5 days by MTT assay; assay type: toxicity, cell-based; conditions: time 5 day
[8] = Selectivity index, ratio of CC50 for cytotoxicity against human MT4 cells assessed as reduction in cell viability to EC50 for antiviral activity against HIV-1 IIIB infected in human MT4 cells assessed as reduction in virus induced cytopathic effect; assay type: toxicity, cell-based; conditions: read-out: Ratio CC50/EC50
[9] = Selectivity index, ratio of CC50 for cytotoxicity against human MT4 cells assessed as reduction in cell viability to EC50 for antiviral activity against NNRTI-resistant HIV-1 harboring Y188L mutant infected in human MT4 cells; assay type: toxicity, cell-based; conditions: read-out: Ratio CC50/EC50
[10] = system: Human immunodeficiency virus 1; assay: Antiviral activity against NNRTI-resistant HIV-1 harboring F227L/V106A double mutant infected in human MT4 cells assessed as virus-induced cytopathicity incubated for 5 days by MTT assay; assay type: functional, organism-based; conditions: Human immunodeficiency virus 1, MT4, 120 h
[11] = as §1, with “K103N” for “L100I”; assay type: functional
[12] = as §1, with “Y188L” for “L100I”; assay type: functional
[13] = system: Human immunodeficiency virus 1; assay: Antiviral activity against HIV-1 RES056 infected in human MT4 cells assessed as reduction in virus induced cytopathic effect incubated for 5 days by MTT assay; assay type: functional, organism-based; conditions: Human immunodeficiency virus 1, RES056, MT4, 120 h
[14] = as §1, with “F227L/V106A double” for “L100I”, “RES056” for “IIIB”; assay type: functional
[15] = as §1, with “Y181C” for “L100I”; assay type: functional
[16] = system: Human immunodeficiency virus 1; assay: Antiviral activity against NNRTI-resistant HIV-1 harboring L100I mutant infected in human MT4 cells assessed as virus-induced cytopathicity incubated for 5 days by MTT assay; assay type: functional, organism-based; conditions: Human immunodeficiency virus 1, MT4, 120 h
[17] = Selectivity index, ratio of CC50 for cytotoxicity against human MT4 cells assessed as reduction in cell viability to EC50 for antiviral activity against NNRTI-resistant HIV-1 harboring Y181C mutant infected in human MT4 cells; assay type: toxicity, cell-based; conditions: read-out: Ratio CC50/EC50
[18] = system: Human immunodeficiency virus 1; assay: Antiviral activity against HIV-1 IIIB infected in human MT4 cells assessed as reduction in virus induced cytopathic effect incubated for 5 days by MTT assay; assay type: functional, organism-based; conditions: Human immunodeficiency virus 1, IIIB, MT4, 120 h
[19] = system: Human immunodeficiency virus 1; assay: Antiviral activity against NNRTI-resistant HIV-1 harboring Y188L mutant infected in human MT4 cells assessed as virus-induced cytopathicity incubated for 5 days by MTT assay; assay type: functional, organism-based; conditions: Human immunodeficiency virus 1, MT4, 120 h
[20] = system: Human immunodeficiency virus 1; assay: Antiviral activity against NNRTI-resistant HIV-1 harboring K103N mutant infected in human MT4 cells assessed as virus-induced cytopathicity incubated for 5 days by MTT assay; assay type: functional, organism-based; conditions: Human immunodeficiency virus 1, MT4, 120 h
[21] = system: Human immunodeficiency virus 1; assay: Antiviral activity against NNRTI-resistant HIV-1 harboring E138K mutant infected in human MT4 cells assessed as virus-induced cytopathicity incubated for 5 days by MTT assay; assay type: functional, organism-based; conditions: Human immunodeficiency virus 1, MT4, 120 h
[22] = system: Human immunodeficiency virus 1; assay: Antiviral activity against NNRTI-resistant HIV-1 harboring Y181C mutant infected in human MT4 cells assessed as virus-induced cytopathicity incubated for 5 days by MTT assay; assay type: functional, organism-based; conditions: Human immunodeficiency virus 1, MT4, 120 h
[23] = Selectivity index, ratio of CC50 for cytotoxicity against human MT4 cells assessed as reduction in cell viability to EC50 for antiviral activity against NNRTI-resistant HIV-1 harboring F227L/V106A double mutant infected in human MT4 cells; assay type: toxicity, cell-based; conditions: read-out: Ratio CC50/EC50
[24] = as §1, with “E138K” for “L100I”; assay type: functional
[25] = Selectivity index, ratio of CC50 for cytotoxicity against human MT4 cells assessed as reduction in cell viability to EC50 for antiviral activity against NNRTI-resistant HIV-1 harboring K103N mutant infected in human MT4 cells; assay type: toxicity, cell-based; conditions: read-out: Ratio CC50/EC50

SMILES | Ratio EC50 [1] | selectivity ratio [2] | IC50 [3] [nM] | selectivity ratio [4] | selectivity ratio [5] | Ratio EC50 [6] | CC50 at 120 h [7] [nM] | selectivity ratio [8] | selectivity ratio [9] | EC50 [10] [nM] | Ratio EC50 [11] | Ratio EC50 [12] | EC50 [13] [nM] | Ratio EC50 [14] | Ratio EC50 [15] | EC50 [16] [nM] | selectivity ratio [17] | EC50 [18] [nM] | EC50 [19] [nM] | EC50 [20] [nM] | further results
Cc1cc(C#N)cc(C)c1Oc1nc(NC2CCN(c3ccc(NS(=O)(=O)C4CC4)cc3)CC2)ncc1C(N)=O | 8.5 | 283 | 38 | 3190 | 4920 | 4.5 | 208000 | 27200 | 6000 | 34 | 1.2 | 4.5 | 42 | 5.5 | 6 | 65 | 4570 | 8 | 35 | 9 | EC50 [21]: 734 nM; EC50 [22]: 45 nM; selectivity ratio [23]: 6070; Ratio EC50 [24]: 96.2; selectivity ratio [25]: 23400
Cc1cc(C#N)cc(C)c1Oc1nc(NC2CCN(c3ccc(N)cc3)CC2)ncc1C(N)=O | 6.6 | 881 | 242 | 668 | 46 | 26.1 | 183000 | 4420 | 718 | 1080 | 1.1 | 6.2 | 4000 | 96.4 | 6.1 | 275 | 726 | 42 | 255 | 45 | EC50 [21]: 208 nM; EC50 [22]: 252 nM; selectivity ratio [23]: 169; Ratio EC50 [24]: 5; selectivity ratio [25]: 4120
Cc1cc(C#N)cc(C)c1Oc1nc(NC2CCN(c3ccc(NS(=O)(=O)N(C)C)cc3)CC2)ncc1C(N)=O | 21.1 | 8010 | 52 | 1500 | 13 | 5.1 | 209000 | 31700 | 6350 | 34 | 1.7 | 5 | 15600 | 2359.1 | 8.1 | 139 | 3910 | 7 | 33 | 11 | EC50 [21]: 26 nM; EC50 [22]: 54 nM; selectivity ratio [23]: 6160; Ratio EC50 [24]: 3.9; selectivity ratio [25]: 18700
Cc1cc(C#N)cc(C)c1Oc1nc(NC2CCN(Cc3ccc(S(C)(=O)=O)cc3)CC2)ncc1C(N)=O | 1.9 | > 1560 | 122 | > 221 | > 68 | 57.4 | > 234000 | > 41100 | > 3400 | 327 | 0.9 | 12.1 | 3450 | 605.5 | 6 | 11 | > 6790 | 6 | 69 | 5 | EC50 [21]: 149 nM; EC50 [22]: 34 nM; selectivity ratio [23]: > 716; Ratio EC50 [24]: 26.2; selectivity ratio [25]: > 4460
Cc1cc(C#N)cc(C)c1Oc1nc(NC2CCN(Cc3ccc(C(N)=O)cc3)CC2)ncc1C(N)=O | 1.6 | > 659 | 158 | > 344 | > 14 | 100.3 | > 250000 | > 5560 | > 324 | 4520 | 1 | 17.1 | 17800 | 394.1 | 6.3 | 73 | > 876 | 45 | 771 | 45 | EC50 [21]: 380 nM; EC50 [22]: 286 nM; selectivity ratio [23]: > 55; Ratio EC50 [24]: 8.4; selectivity ratio [25]: > 5580
